Assay results published in patent US20140005188A1, “PYRIDO[3,4-B]PYRAZINE DERIVATIVES AS SYK INHIBITORS” (GLAXO GROUP LIMITED, priority 2011, published 2014).
Where a name gives a salt, the structure may show the parent alone.

Key:
SYK = molecular target: T1, SYK (Homo sapiens, UniProt P43405); experiment: biochemical; conditions: SYK lysate from anti-IgM stimulated Ramos B cells, Y7 Sox peptide 5 μM, ATP 35 μM; read-out: average plC50
T1 construct: The cell pellet was then lysed in ice-cold lysis buffer containing 1% triton-x-100; endogenous in cells; host or cells: Ramos B cells (human Burkitt's lymphoma, clone 296.4C10, ATCC), stimulated with anti-IgM antibody, clarified Triton X-100 lysate
Description: 1. Basic SYK Enzyme Activity
3 μl of SYK lysate diluted 16-fold in assay buffer (20 mM TRIS pH 7.4, 0.01% BSA, 0.1% Pluronic F-68) was added to wells containing 0.1 μl of various concentrations of compound or DMSO vehicle (1.7% final) in a Greiner low volume 384 well black plate. […]
i. Preparation of Ramos Cell Lysates
Cells were grown in Corning Cellstacks (6360 cm^2) in 1 litre volume and viability and cell density were monitored daily. Cells were maintained at <1.5×10e6/ml and >92% viability ii. Stimulation of Ramos Cells with Anti-IgM Ab to Produce Syk & Preparation of Lysates Cells were stimulated at 20×10^6 cells/ml using 15 ug/ml (final concentration) anti-IgM antibody. Following harvest (as described above), a total of 4×10^9 cells were resuspended in 180 mls pre-warmed (37° C.) DPBS in a Corning 500 ml centrifuge bottle. 20 mls anti-IgM antibody at 150 ug/ml were added to each 500 ml centrifuge bottle. (working stock made up in DPBS pre-warmed to 37° C.). Cells were incubated for exactly 5 minutes at 37° C. following the addition of anti IgM antibody. Following 5 minutes stimulation, 300 mls ice-cold DPBS were added to each bottle to stop the stimulation (temperature drops to ˜12 deg C.) then cells were centrifuged at 2000 rpm (Sorvall Legend RT+centrifuge—pre-chilled to 4 deg C.). Cells were washed by resuspension in ice-cold DPBS and centrifugation as above. The cell pellet was then lysed in ice-cold lysis buffer containing 1% triton-x-100 at a ratio of 150 ul/1×10^7 cells (i.e. […] lysis buffer). Following the addition of lysis buffer, the cells were pipetted up & down & kept on ice for 15 minutes. The clarified lysate was then obtained by centrifugation (Sorvall Evolution RC (SLA-1500 rotor, ˜20,000 g (˜14,500 rpm), 45 min, 4° C.).
Lysate was aliquoted, snap-frozen on dry-ice & stored at −80° C. prior to assay.

B lymphoma (BKS-2) = conditions: murine BKS-2 B lymphoma model; cited from earlier work
[1] = cited from earlier work

SMILES | IC50 (SYK) | other results
O=C1CN(c2cc3nccnc3c(NC[C@H]3CCCNC3)n2)CCN1 [Example 30, 4-(5-{[(3S)-3-piperidinylmethyl]amino}pyrido[3,4-b]pyrazin-7-yl)-2-piperazinone, hydrochloride] | ≤ 10 µM | 
COc1cc(/C=C/C(=O)CC(=O)/C=C/c2ccc(O)c(OC)c2)ccc1O [curcumin] |  | tumour burden as measured by the total splenocyte number (B lymphoma (BKS-2)): significant reduction
Cc1noc(C)c1-c1cc2nccnc2c(NCC2(F)CCCNC2)n1 (stereo not drawn) [Example 157, 7-(dimethyl-1,2-oxazol-4-yl)-N-[(3-fluoropiperidin-3-yl)methyl]pyrido[3,4-b]pyrazin-5-amine hydrochloride] | ≤ 10 µM | 
Cn1nccc1-c1cc2nccnc2c(NC[C@@H]2CNCCO2)n1 [Example 92, 7-(1-methyl-1H-pyrazol-5-yl)-N-[(2S)-morpholin-2-ylmethyl]pyrido[3,4-b]pyrazin-5-amine hydrochloride] | ≤ 10 µM | 
CC1CCC(CNc2nc(-c3cnn(C)c3)cc3nccnc23)CN1 (single isomer, unassigned) [Example 176, 7-(1-methyl-1H-pyrazol-4-yl)-N-[(6-methylpiperidin-3-yl)methyl]pyrido[3,4-b]pyrazin-5-amine hydrochloride, single unknown enantiomer] | ≤ 10 µM | 
COc1cc(Nc2ncc(F)c(Nc3ccc4c(n3)N(COP(=O)(O)O)C(=O)C(C)(C)O4)n2)cc(OC)c1OC [Example R788, fostamatinib disodium] |  | therapeutic benefit ([1]; patients with DLBCL and CLL/SLL): therapeutic benefit; tolerability ([1]; patients with relapsed or refractory B-Cell NHL): well-tolerated

Further lines, with some results ahead:

IC50 (SYK) | SMILES | other results
≤ 10 µM | Fc1ccc(-c2cc3nccnc3c(NCC3(F)CCCNC3)n2)c(F)c1 (stereo not drawn) [Example 166, 7-(2,4-difluorophenyl)-N-[(3-fluoropiperidin-3-yl)methyl]pyrido[3,4-b]pyrazin-5-amine] | 
≤ 10 µM | COc1cncc(-c2cc3nccnc3c(NCC3(F)CCCNC3)n2)c1 (stereo not drawn) [Example 128, N-[(3-fluoropiperidin-3-yl)methyl]-7-(5-methoxypyridin-3-yl)pyrido[3,4-b]pyrazin-5-amine] | 
